Results: ChEMBL document CHEMBL2062396, “Synthesis and classical pathway Complement inhibitory activity of C7-functionalized filifolinol derivatives, inspired in K-76 COOH” (Eur J Med Chem, 2012)
Structures can show the parent of a compound that is named as a salt.

Experiment: Inhibition of human classical pathway Complement system assessed as inhibition of complement mediated hemolysis of sensitized sheep RBCs using fresh human sera by Weissman method; call rule not given here

| SMILES | IC50 (read-out: IC50) [µM] | IC50 |
| --- | --- | --- |
| C[C@@H]1CC[C@H](O)C(C)(C)[C@]12Cc1cc(C(=O)O)cc(Cl)c1O2 | 1540 |  |
| C[C@@H]1CC[C@H]2C(C)(C)[C@H](O)[C@H](O)C[C@]2(C)[C@@]12Cc1c(O)cc(C(=O)O)c(C=O)c1O2 | 570 |  |
| C[C@@H]1CC[C@H](O)C(C)(C)[C@]12Cc1cc(C(=O)O)cc([N+](=O)[O-])c1O2 | 1880 |  |
| C[C@@H]1CC[C@H](O)C(C)(C)[C@]12Cc1cc(C(=O)O)cc(N)c1O2 | 7270 |  |
| C[C@@H]1CC[C@H](O)C(C)(C)[C@]12Cc1cc(C(=O)O)cc(I)c1O2 | 1140 |  |
| C[C@@H]1CC[C@H](O)C(C)(C)[C@]12Cc1cc(C(=O)O)cc(Br)c1O2 | 840 |  |
| C[C@@H]1CC[C@H](O)C(C)(C)[C@]12Cc1cc(C(=O)O)cc(C(F)(F)F)c1O2 | 100 |  |
| C[C@@H]1CC[C@H](O)C(C)(C)[C@]12Cc1cc(C(=O)O)cc(-c3ccccc3)c1O2 | 140 |  |
| C[C@@H]1CC[C@H](O)C(C)(C)[C@]12Cc1cc(C(=O)O)cc(C(=O)O)c1O2 | 7000 |  |
| C[C@@H]1CC[C@H](O)C(C)(C)[C@]12Cc1cc(C(=O)[O-])cc(CC(=O)O)c1O2.[Na+] |  | Not Active |
| C[C@@H]1CC[C@H](O)C(C)(C)[C@]12Cc1cc(C(=O)O)cc(/C=C/C(=O)O)c1O2 | 970 |  |
| C[C@@H]1CC[C@H](O)C(C)(C)[C@]12Cc1cc(C(=O)O)cc(CCC(=O)O)c1O2 | 360 |  |
| C[C@@H]1CC[C@H](O)C(C)(C)[C@]12Cc1cc(C(=O)O)cc(-c3ccc(C(=O)O)cc3)c1O2 | 18000 |  |
| C[C@@H]1CC[C@H](O)C(C)(C)[C@]12Cc1cc(C(=O)O)cc(CC(O)CO)c1O2 (mixture of isomers) | 360 |  |
| C[C@@H]1CC[C@H](O)C(C)(C)[C@]12Cc1cc(C(=O)O)ccc1O2 [FILIFOLINOIC ACID SODIUM SALT] | 2000 |  |
| CC1(C)CC[C@]2(C(=O)O)CC[C@]3(C)C(=CC[C@@H]4[C@@]5(C)CC[C@H](OC(=O)COCC(=O)O)C(C)(C)[C@@H]5CC[C@]43C)[C@@H]2C1 [OLEANOLIC ACID HEMIDIGLYCOLATE SODIUM SALT] | 31 |  |
